Consider twelve compounds from ChEMBL document CHEMBL5465560, “Selectivity Literature for EUbOPEN Chemogenomic Library” (2024).

Assay [1] concerns the target Cyclin-dependent kinase 3 (Homo sapiens) (UniProt Q00526). In words: Selectivity interaction (KinomeScan (DiscoverX)) EUB0000595a CDK3. Conditions: at 10 µM.
In assay [2] the test system is Fibroblast growth factor receptor 3 (Homo sapiens), P22607 [G697C]. The experiment in a line: (§1) Selectivity interaction (KinomeScan (DiscoverX)) EUB0000666a FGFR3. Conditions: at 10 µM.
Assay [3] deals with Fibroblast growth factor receptor 3 (Homo sapiens, UniProt P22607). The assay is described as §1. Conditions: at 10 µM.
Assay [4] addresses Serine/threonine-protein kinase 24 (Homo sapiens) (UniProt Q9Y6E0). The experiment in a line: Selectivity interaction (KinomeScan (DiscoverX)) EUB0000607a STK24. Conditions: at 10 µM.
For assay [5], the target named is T1, Serine/threonine-protein kinase DCLK1 (Homo sapiens) (UniProt O15075).
T1 sequence (whole entry): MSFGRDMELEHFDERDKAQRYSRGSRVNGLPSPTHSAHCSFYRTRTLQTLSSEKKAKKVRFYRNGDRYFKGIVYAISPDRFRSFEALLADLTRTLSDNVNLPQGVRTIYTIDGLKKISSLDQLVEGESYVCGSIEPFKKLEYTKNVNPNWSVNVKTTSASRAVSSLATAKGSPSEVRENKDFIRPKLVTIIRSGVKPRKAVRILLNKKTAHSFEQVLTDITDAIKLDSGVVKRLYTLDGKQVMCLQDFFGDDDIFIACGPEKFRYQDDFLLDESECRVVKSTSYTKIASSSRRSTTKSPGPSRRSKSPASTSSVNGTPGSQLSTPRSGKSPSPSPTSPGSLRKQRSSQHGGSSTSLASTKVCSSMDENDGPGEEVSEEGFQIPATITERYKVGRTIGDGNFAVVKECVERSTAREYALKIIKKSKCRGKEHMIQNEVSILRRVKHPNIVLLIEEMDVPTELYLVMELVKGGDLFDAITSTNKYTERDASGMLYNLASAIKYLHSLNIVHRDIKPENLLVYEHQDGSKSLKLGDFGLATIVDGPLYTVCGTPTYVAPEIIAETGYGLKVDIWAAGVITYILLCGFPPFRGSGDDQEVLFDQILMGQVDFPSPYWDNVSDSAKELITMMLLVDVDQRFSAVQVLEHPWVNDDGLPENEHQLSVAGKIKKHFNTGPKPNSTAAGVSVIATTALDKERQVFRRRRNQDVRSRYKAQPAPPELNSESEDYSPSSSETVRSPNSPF
The experiment in a line: Selectivity interaction (KinomeScan (DiscoverX)) EUB0000607a DCLK1. Conditions: at 10 µM.

Assay [6] addresses Mitogen-activated protein kinase kinase kinase kinase 4 (Homo sapiens, UniProt O95819). The experiment in a line: Selectivity interaction (KinomeScan (DiscoverX)) EUB0000607a MAP4K4. Conditions: at 10 µM.
Assay [7] has as its target CDK4/Cyclin D3 (Homo sapiens) (UniProt P11802+P30281). Conditions: at 10 µM.
Assay [8] concerns the target T2, Phosphatidylinositol 4,5-bisphosphate 3-kinase catalytic subunit delta isoform (Homo sapiens) (UniProt O00329).
T2 sequence (whole entry): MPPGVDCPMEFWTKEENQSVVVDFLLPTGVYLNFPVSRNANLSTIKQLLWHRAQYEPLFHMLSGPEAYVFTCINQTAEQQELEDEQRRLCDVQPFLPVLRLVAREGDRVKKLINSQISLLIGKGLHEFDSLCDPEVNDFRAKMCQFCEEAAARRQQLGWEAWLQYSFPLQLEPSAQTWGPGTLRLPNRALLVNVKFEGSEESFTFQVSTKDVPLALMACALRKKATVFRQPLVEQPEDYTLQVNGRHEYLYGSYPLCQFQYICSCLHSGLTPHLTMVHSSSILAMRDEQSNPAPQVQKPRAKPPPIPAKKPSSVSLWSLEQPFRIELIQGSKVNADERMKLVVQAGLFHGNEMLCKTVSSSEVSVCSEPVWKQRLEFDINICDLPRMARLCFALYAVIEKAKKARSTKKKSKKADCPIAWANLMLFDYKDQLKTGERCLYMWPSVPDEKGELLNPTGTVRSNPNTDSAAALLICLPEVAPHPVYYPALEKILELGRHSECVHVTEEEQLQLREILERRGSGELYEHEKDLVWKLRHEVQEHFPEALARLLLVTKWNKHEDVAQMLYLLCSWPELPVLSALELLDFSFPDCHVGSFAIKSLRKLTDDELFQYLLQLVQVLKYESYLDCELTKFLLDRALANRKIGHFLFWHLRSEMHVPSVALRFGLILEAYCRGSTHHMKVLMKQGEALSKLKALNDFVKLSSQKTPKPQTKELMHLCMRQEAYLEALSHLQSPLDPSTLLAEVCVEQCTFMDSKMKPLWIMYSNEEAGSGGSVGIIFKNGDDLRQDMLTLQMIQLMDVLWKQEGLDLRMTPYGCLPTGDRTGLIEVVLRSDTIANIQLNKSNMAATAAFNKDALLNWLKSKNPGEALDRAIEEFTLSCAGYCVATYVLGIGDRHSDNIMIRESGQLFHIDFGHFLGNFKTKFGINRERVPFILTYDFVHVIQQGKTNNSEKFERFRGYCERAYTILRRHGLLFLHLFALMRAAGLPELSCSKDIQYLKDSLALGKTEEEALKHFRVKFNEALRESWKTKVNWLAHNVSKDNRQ
In words: Selectivity interaction (ActivX KiNativ screen (kinase selectivity in THP-1 cell lysates)) EUB0000639a PIK3CD. Type of assay: subcellular. The following applies: lysate, at 0.2 µM.

Assay [9] deals with Tyrosine-protein kinase JAK2 (Homo sapiens, UniProt O60674). In words: Selectivity interaction (Antiproliferative activity against Tel-kinase transformed Ba/F3 cell line) EUB0000045b JAK2. Conditions: BaF3. It counts as cell-based.
Assay [10] deals with Ribosomal protein S6 kinase alpha-5 (Homo sapiens) (UniProt O75582). In words: Selectivity interaction (Ambit KINOMEscan and KiNATiv profiling in Jurkat cells) EUB0000090b RPS6KA5. The following applies: at 1 µM. It counts as cell-based.
Assay [11] deals with Eukaryotic translation initiation factor 2-alpha kinase 3 (Homo sapiens, UniProt Q9NZJ5).
Assay [12] addresses T3, ALK tyrosine kinase receptor (Homo sapiens, UniProt Q9UM73). In words: Selectivity interaction (Upstate Kinase Profiler service (Millipore)) EUB0000056c ALK. Conditions: at 1 µM.
Assay [13] concerns the target Casein kinase II subunit alpha' (Homo sapiens) (UniProt P19784). The experiment in a line: Selectivity interaction (Kinase panel (DSF assay)) EUB0001558a CSNK2A2.
In assay [14] the test system is ALK tyrosine kinase receptor (Homo sapiens), Q9UM73 [C1156Y]. In words: (§2) Selectivity interaction (KinomeScan (DiscoverX)) EUB0001079a ALK. The following applies: at 1 µM.
The test system of assay [15] is ALK tyrosine kinase receptor (Homo sapiens), Q9UM73 [L1196M]. The description is as §2. The following applies: at 1 µM.
Assay [16] concerns the target T3, ALK tyrosine kinase receptor. The description is as §2. The following applies: at 1 µM.
Assay [17] concerns the target Eukaryotic translation initiation factor 2-alpha kinase 1 (Homo sapiens) (UniProt Q9BQI3). The experiment in a line: Selectivity interaction (KinomeScan (DiscoverX)) EUB0000229b EIF2AK1. Conditions: at 10 µM.
For assay [18], the target named is Receptor-interacting serine/threonine-protein kinase 2 (Homo sapiens, UniProt O43353). In words: Selectivity interaction (KinomeScan (DiscoverX)) EUB0000229b RIPK2. Conditions: at 10 µM.

T3 sequence (Q9UM73 19-1620 limits assumed): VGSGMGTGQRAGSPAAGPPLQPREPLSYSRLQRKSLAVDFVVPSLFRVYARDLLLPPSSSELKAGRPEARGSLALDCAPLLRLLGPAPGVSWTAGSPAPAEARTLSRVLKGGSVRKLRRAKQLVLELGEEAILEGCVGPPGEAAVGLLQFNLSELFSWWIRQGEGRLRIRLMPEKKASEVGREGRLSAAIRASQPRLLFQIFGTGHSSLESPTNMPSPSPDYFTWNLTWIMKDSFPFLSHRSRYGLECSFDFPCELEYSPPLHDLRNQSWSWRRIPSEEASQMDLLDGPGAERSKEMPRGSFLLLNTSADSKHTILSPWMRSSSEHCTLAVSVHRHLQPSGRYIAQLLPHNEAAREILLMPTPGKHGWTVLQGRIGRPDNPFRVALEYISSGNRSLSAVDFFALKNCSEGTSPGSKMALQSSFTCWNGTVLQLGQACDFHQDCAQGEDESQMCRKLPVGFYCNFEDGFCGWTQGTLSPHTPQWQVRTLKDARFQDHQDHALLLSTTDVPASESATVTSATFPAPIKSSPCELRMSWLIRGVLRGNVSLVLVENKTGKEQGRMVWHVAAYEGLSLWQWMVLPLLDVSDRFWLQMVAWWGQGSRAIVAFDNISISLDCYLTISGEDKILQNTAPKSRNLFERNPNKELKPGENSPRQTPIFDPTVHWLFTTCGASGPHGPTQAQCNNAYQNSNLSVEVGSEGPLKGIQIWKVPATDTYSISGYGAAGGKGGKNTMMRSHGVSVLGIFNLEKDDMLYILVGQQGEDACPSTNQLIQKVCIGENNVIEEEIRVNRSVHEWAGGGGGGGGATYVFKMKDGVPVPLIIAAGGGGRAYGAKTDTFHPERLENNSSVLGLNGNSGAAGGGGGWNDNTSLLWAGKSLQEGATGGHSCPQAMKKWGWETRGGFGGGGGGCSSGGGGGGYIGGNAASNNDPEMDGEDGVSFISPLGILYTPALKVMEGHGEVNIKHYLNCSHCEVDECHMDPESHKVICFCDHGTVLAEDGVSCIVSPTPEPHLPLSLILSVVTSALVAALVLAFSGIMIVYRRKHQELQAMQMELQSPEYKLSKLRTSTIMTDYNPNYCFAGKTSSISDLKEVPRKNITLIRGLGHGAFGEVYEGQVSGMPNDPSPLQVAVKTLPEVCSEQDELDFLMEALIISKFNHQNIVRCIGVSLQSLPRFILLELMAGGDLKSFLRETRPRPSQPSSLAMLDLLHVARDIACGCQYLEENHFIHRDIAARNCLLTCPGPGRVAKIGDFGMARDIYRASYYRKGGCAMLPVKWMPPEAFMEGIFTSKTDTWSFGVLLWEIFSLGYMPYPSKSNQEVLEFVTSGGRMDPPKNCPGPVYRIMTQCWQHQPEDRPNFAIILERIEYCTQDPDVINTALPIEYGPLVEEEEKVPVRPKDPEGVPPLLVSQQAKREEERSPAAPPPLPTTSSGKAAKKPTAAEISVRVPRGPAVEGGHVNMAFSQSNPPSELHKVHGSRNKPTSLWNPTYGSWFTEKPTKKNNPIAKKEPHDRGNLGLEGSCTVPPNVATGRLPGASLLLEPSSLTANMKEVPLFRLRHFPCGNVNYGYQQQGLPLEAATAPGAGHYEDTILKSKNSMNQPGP
Sequence of Fibroblast growth factor receptor 3 (Homo sapiens), P22607 [G697C] (P22607 whole entry G697C): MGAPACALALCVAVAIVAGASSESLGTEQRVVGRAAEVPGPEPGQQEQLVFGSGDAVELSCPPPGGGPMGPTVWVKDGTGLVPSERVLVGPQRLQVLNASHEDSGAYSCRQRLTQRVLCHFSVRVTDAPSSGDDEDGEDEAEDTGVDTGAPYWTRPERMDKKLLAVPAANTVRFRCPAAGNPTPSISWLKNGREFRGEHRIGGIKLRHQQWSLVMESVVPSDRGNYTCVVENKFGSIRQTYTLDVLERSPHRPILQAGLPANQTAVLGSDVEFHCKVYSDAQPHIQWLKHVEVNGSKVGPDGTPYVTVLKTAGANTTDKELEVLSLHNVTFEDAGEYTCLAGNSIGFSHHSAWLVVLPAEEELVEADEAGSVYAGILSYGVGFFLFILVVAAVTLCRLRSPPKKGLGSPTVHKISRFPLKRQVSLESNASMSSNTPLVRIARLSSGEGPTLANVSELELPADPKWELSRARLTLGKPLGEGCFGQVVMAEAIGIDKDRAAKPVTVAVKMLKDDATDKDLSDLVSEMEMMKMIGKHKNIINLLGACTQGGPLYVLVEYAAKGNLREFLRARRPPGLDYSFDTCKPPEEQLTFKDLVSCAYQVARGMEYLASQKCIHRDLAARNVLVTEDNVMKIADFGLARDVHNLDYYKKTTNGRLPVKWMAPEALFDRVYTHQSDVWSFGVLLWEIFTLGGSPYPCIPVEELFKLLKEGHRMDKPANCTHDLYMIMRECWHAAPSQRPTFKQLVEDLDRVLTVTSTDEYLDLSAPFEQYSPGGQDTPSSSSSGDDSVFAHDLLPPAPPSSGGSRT
Sequence of ALK tyrosine kinase receptor (Homo sapiens), Q9UM73 [L1196M] (Q9UM73 whole entry L1196M, looked up): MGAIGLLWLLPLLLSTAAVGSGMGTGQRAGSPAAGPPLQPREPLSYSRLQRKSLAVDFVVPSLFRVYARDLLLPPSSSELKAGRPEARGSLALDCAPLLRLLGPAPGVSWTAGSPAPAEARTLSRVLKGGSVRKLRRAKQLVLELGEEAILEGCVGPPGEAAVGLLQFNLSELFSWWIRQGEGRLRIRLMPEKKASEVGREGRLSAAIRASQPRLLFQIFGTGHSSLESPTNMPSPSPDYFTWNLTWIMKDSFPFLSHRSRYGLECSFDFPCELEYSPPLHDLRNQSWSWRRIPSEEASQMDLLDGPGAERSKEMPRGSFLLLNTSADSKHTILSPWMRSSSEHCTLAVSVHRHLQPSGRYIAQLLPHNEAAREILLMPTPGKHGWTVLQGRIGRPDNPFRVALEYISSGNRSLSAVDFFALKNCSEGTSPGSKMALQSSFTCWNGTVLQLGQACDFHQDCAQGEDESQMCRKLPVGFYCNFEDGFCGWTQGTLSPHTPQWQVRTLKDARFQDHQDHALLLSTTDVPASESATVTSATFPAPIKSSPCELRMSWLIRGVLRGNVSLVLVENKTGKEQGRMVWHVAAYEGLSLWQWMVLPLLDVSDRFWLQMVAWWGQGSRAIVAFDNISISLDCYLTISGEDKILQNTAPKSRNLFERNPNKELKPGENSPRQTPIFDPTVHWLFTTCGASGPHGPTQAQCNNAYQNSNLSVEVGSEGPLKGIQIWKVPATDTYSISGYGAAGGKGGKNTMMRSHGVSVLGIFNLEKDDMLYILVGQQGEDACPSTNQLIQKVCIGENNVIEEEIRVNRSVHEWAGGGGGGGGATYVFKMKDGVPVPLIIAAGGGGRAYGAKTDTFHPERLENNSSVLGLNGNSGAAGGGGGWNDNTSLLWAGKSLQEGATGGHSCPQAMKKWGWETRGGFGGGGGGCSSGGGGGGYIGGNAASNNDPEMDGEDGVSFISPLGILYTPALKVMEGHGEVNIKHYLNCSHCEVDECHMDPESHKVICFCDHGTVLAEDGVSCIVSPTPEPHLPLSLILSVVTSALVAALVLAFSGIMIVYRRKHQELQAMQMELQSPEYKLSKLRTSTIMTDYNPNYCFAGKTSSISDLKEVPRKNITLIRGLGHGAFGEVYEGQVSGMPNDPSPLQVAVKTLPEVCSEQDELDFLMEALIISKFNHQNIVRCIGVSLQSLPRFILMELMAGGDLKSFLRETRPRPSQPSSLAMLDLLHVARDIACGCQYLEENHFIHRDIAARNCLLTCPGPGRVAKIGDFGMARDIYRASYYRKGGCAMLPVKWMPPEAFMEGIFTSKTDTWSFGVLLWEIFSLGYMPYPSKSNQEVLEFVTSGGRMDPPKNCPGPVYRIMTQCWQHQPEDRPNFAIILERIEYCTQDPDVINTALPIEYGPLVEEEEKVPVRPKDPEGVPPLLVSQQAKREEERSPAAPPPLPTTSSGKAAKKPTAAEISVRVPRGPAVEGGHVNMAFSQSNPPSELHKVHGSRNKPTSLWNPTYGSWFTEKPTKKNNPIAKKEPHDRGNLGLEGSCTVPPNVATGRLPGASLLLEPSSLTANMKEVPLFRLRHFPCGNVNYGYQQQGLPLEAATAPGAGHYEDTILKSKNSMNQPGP
Sequence of Eukaryotic translation initiation factor 2-alpha kinase 3 (Q9NZJ5 whole entry): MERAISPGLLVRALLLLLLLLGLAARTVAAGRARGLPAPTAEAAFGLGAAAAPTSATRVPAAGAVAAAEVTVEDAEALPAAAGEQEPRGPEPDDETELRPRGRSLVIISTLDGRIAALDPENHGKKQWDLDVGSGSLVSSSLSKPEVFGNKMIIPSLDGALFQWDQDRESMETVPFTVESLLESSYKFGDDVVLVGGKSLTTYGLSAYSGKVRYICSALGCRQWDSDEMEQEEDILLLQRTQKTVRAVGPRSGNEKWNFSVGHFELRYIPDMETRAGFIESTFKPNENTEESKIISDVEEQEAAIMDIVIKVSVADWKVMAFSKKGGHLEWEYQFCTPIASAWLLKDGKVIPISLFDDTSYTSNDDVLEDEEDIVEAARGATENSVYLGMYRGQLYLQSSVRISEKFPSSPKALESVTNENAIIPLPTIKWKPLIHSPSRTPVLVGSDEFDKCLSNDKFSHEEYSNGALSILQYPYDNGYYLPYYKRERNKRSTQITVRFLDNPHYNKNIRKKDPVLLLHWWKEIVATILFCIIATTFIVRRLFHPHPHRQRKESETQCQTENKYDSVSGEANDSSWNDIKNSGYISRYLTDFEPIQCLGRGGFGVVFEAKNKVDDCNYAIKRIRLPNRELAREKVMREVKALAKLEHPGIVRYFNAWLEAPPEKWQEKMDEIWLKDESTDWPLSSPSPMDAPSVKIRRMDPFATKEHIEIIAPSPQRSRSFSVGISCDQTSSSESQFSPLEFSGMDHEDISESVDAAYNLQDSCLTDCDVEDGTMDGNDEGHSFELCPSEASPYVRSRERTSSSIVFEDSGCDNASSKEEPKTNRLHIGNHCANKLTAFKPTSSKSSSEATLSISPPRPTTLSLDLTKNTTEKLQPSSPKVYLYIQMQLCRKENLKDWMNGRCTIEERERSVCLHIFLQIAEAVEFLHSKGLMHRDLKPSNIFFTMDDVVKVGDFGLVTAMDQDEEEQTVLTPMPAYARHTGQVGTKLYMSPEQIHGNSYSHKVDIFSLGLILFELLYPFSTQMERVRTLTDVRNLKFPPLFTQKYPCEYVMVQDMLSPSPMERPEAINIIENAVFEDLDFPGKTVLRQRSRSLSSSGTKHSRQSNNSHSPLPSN

For the compound `COCC(=O)NC/C=C/c1ccc2ncnc(Nc3ccc(Oc4ccc(C)nc4)c(C)c3)c2c1` [CP-724714], the % of control in assay [1] amounted to 100%.
With `O=C(NOC[C@H](O)CO)c1ccc(F)c(F)c1Nc1ccc(I)cc1F`, the results for the % of control in assay [2] and in assay [3] were 88% and 100%, respectively.
For the compound `CNC(=O)Nc1ccc(-c2nc(N3CC4CCC(C3)O4)c3cnn(C4CCC5(CC4)OCCO5)c3n2)cc1`, the % of control in assay [4] came to 96%; in [5] it was 100%; in assay [6] it was 85%.
In assay [7], `Cc1cc([C@@H](C)Nc2ccccc2C(=O)O)c2nc(N3CCOCC3)cc(=O)n2c1` [AZD-6482] returned a % of control of 100%.
In turn, `CC[C@@H]1[C@H](F)C(=O)N[C@@H]1COc1nccc2cc(C(N)=O)c(OC)cc12` [ZIMLOVISERTIB] registered a % of inhibition in assay [8] of 4.7%.
Turning to `C=CC(=O)Nc1cc(-n2c(=O)ccc3cnc4ccc(-c5ccc(NS(C)(=O)=O)cc5)cc4c32)ccc1C`, the GIC50 in [9] worked out at 5.83 µM.
`CN(C)C/C=C/C(=O)Nc1ccc(C(=O)N2CCCC(Nc3ncc(Cl)c(-c4c[nH]c5ccccc45)n3)C2)cc1` (stereo not drawn): the % of control in [10] was 86%.
As a reminder, the IC50 is the concentration at which inhibition is half-maximal. Read a low IC50 as inhibition by little substance. As to `CCc1cccc(CC)c1NC(=O)c1nn(C)c2c1CCc1cnc(Nc3ccc(C(=O)NC4CCN(C)CC4)cc3OC(F)(F)F)nc1-2`, the IC50 in assay [11] was more than 10 µM.
In the case of `Cc1ccc(-c2ccc3c(ccc4sc5c(c43)NC[C@@H](C)NC5=O)n2)cn1`, the % of inhibition in [12] is 43%.
With `CC(C)(O)[C@H](F)CN1Cc2cc(NC(=O)c3cnn4cccnc34)c(N3CCOCC3)cc2C1=O`, the dTM in assay [13] is 0.1 K.
For the compound `Nc1cnc(N2CCc3cc(S(=O)(=O)Nc4c(F)cc(Cl)cc4F)cc(N4CCCC4=O)c32)nc1` [TP-020n], the % of control in [14] came to 100%; in assay [15] it was 81%; in assay [16], 100%.
For the compound `COc1cc(N(C)c2ccnc3ccc(C(F)(F)F)cc23)cc(OC)c1OC`, the % binding in assay [17] amounted to 74%; in assay [18], 58%.
